Test system: LG0703-F948-PDC spheroids with HUVEC/MSC, viability
Assay: Anticancer human tumor LG0703-F948-PDC patient-derived lung adenocarcinoma cell line growth inhibition [IpAb]
Conditions: for IC50: curve of first compound; for viability, T/C: stronger effect = lower value
Description: Combinatorial screen of targeted agents with ipatasertib and abemaciclib in multi-cell type tumor spheroids
A high-throughput screen of multi-cell type tumor spheroids was designed to identify active combinations of targeted small molecules and ipatasertib or abemaciclib. Complex spheroids include a stromal component modeled by human endothelial cells (HUVEC) and fibroblasts modeled by human mesenchymal stem cells (MSCs). The concentration ranges selected for each drug and investigational agent were based upon clinically achievable concentrations if the clinical Cmax of the agent was known.
Compounds. The drugs and investigational agents: ipatasertib (NSC767898), abemaciclib(NSC768073), selumetinib (NSC741078), trametinib (758246), adavosertib (NSC754352), everolimus (NSC733504), sapanisertib (NSC764658), vemurafenib (NSC761431), venetoclax (NSC766270), copanlisib (NSC809693), apelisib (NSC765974), palbociblib (NSC758247), vemurafenib (NSC761431), dabrafenib (NSC764134), ravoxertinib (NSC781343), BMS-387032 (NSC767048), sotorasib (NSC818433), talazoparib (NSC767125) and afursertib (NSC778305), were obtained from the National Cancer Institute (NCI) Developmental Therapeutics Program Chemical Repository. The FDA-approved anticancer drug set is available from the NCI Developmental Therapeutics Program. […] The stock solutions were prepared in dimethyl sulfoxide (DMSO, Sigma-Aldrich, St. Louis, MO, cat. D2650) at 800-fold the tested concentration and stored at -70 degrees C prior to their use. All drugs and investigational agents were tested over a range starting from a high concentration at or near the clinical Cmax and decreasing in half-log increments. If the clinical Cmax for an agent had not been determined, the highest concentration tested was 10 microM.
NCI60 Cell Culture. NCI60 cell lines were obtained from the NCI Developmental Therapeutics Program Tumor Repository. For each lot of cells, the Repository performed Applied Biosystems AmpFLSTR Identifiler testing with PCR amplification to confirm consistency with the published Identifier STR profile for each cell line. Cells were kept in continuous culture for no more than 20 passages. The optimal seeding densities for each of the cell lines at each time point assessed were determined prior to performing the concentration response studies. Briefly, the NCI60 human tumor lines were grown as monolayers in RPMI 1640 medium supplemented with 10% FBS and 2 mmol/L L-glutamine.
An additional 9 lines were from the NCI60 cell line panel including MDA-MB-231 breast carcinoma, MDA-MB-468 breast carcinoma, MCF7 breast carcinoma, Hs578T breast carcinoma, MALME-3M melanoma, SK-MEL-2 melanoma, SK-OV-3 ovarian carcinoma, DU-145 prostate carcinoma, PC-3 prostate carcinoma, all cell lines along with major genetic alterations are listed on Table 2. Pooled donor human umbilical vein endothelial cells (HUVEC, Lonza, cat. CC-2519) and human mesenchymal stem cells (hMSC, Lonza, cat. PT-2501) were purchased from Lonza (Walkersville, MD).
PDMR cell lines were grown in complete medium (DC medium): Dulbecco's modified Eagle's medium (DMEM)/F12 supplemented with 5% fetal bovine serum (FBS), 2 mM L-glutamine, 100 U/mL penicillin and 100 µg/ml streptomycin, 0.4 µg/ml hydrocortisone, 10 ng/ml epidermal growth factor (EGF) recombinant human protein, 24 µg/mL adenine, and 0.1 mg/mL primocin. During culture from frozen stock vials, PDMR cells were cultured in the same medium containing 10 µM Y-27632 (see Table 3). The PDCs were cultured in complete DMEM/F12 media without 10 microM Y-27632 dihydrochloride for at least two passages prior to the screen. The pooled donor HUVEC and hMSC were cultured in endothelial cell growth medium 2 (PromoCell, Heidelberg, Germany, cat. C-22011) and mesenchymal stem cell growth medium 2 (PromoCell, cat. C-28009), respectively. For all experiments, HUVEC and hMSC were used at passages </=5.
[…]

[1] = second compound 0.1 µM, first compound 0.0316 µM
[2] = second compound 0.1 µM, first compound 0.1 µM
[3] = second compound 0.1 µM, first compound 0.316 µM
[4] = second compound 0.1 µM, first compound 1 µM
[5] = second compound 0.316 µM, first compound 0.0316 µM
[6] = second compound 0.316 µM, first compound 0.1 µM
[7] = second compound 0.316 µM, first compound 0.316 µM
[8] = second compound 0.316 µM, first compound 1 µM
[9] = second compound 1 µM, first compound 0.0316 µM
[10] = second compound 1 µM, first compound 0.1 µM
[11] = second compound 1 µM, first compound 0.316 µM
[12] = second compound 1 µM, first compound 1 µM
[13] = second compound 3.16 µM, first compound 0.0316 µM
[14] = second compound 3.16 µM, first compound 0.1 µM
[15] = second compound 3.16 µM, first compound 0.316 µM
[16] = second compound 3.16 µM, first compound 1 µM
[17] = second compound 10 µM, first compound 0.0316 µM
[18] = second compound 10 µM, first compound 0.1 µM
[19] = second compound 10 µM, first compound 0.316 µM
[20] = second compound 10 µM, first compound 1 µM
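Also: spheroids exposed to compounds for seven days before readout.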
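For viability, T/C in this document: T/C percent relative to DMSO vehicle wells set as 100% viability.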

CC(=O)c1c(C)c2cnc(Nc3ccc(N4CCNCC4)cn3)nc2n(C2CCCC2)c1=O + CC(C)NCC(C(=O)N1CCN(c2ncnc3c2C(C)CC3O)CC1)c1ccc(Cl)cc1
IC50 (second compound 0.1 µM): > 300 nM
IC50 (second compound 0.316 µM): > 300 nM
IC50 (second compound 1 µM): 2.55 nM
IC50 (second compound 3.16 µM): < 0.949 nM
IC50 (second compound 10 µM): < 0.949 nM
viability, T/C (second compound 0.1 µM, first compound 0.000949 µM): 86.8%
viability, T/C (second compound 0.1 µM, first compound 0.003 µM): 86%
viability, T/C (second compound 0.1 µM, first compound 0.00949 µM): 84.8%
viability, T/C (second compound 0.1 µM, first compound 0.03 µM): 73.3%
viability, T/C (second compound 0.1 µM, first compound 0.0949 µM): 80.4%
viability, T/C (second compound 0.1 µM, first compound 0.3 µM): 73.4%
viability, T/C (second compound 0.316 µM, first compound 0.000949 µM): 70.5%
viability, T/C (second compound 0.316 µM, first compound 0.003 µM): 69.7%
viability, T/C (second compound 0.316 µM, first compound 0.00949 µM): 60.5%
viability, T/C (second compound 0.316 µM, first compound 0.03 µM): 62.5%
viability, T/C (second compound 0.316 µM, first compound 0.0949 µM): 58.4%
viability, T/C (second compound 0.316 µM, first compound 0.3 µM): 60.3%
viability, T/C (second compound 1 µM, first compound 0.000949 µM): 54.6%
viability, T/C (second compound 1 µM, first compound 0.003 µM): 53.1%
viability, T/C (second compound 1 µM, first compound 0.00949 µM): 42.4%
viability, T/C (second compound 1 µM, first compound 0.03 µM): 41.8%
viability, T/C (second compound 1 µM, first compound 0.0949 µM): 42.1%
viability, T/C (second compound 1 µM, first compound 0.3 µM): 43.9%
viability, T/C (second compound 3.16 µM, first compound 0.000949 µM): 50.1%
viability, T/C (second compound 3.16 µM, first compound 0.003 µM): 41.8%
viability, T/C (second compound 3.16 µM, first compound 0.00949 µM): 41.7%
viability, T/C (second compound 3.16 µM, first compound 0.03 µM): 42.2%
viability, T/C (second compound 3.16 µM, first compound 0.0949 µM): 34.9%
viability, T/C (second compound 3.16 µM, first compound 0.3 µM): 33.5%
viability, T/C (second compound 10 µM, first compound 0.000949 µM): 41.5%
viability, T/C (second compound 10 µM, first compound 0.003 µM): 37.9%
viability, T/C (second compound 10 µM, first compound 0.00949 µM): 43.5%
viability, T/C (second compound 10 µM, first compound 0.03 µM): 40%
viability, T/C (second compound 10 µM, first compound 0.0949 µM): 33.5%
viability, T/C (second compound 10 µM, first compound 0.3 µM): 27.5%

COc1c(OCCCN2CCOCC2)ccc2c3n(c(=NC(=O)c4cnc(N)nc4)nc12)CCN3 + CC(C)NCC(C(=O)N1CCN(c2ncnc3c2C(C)CC3O)CC1)c1ccc(Cl)cc1
IC50 (second compound 0.1 µM): 26.6 nM
IC50 (second compound 0.316 µM): 13.6 nM
IC50 (second compound 1 µM): 3.91 nM
IC50 (second compound 3.16 µM): < 3.16 nM
IC50 (second compound 10 µM): < 3.16 nM
viability, T/C (second compound 0.1 µM, first compound 0.00316 µM): 84.6%
viability, T/C (second compound 0.1 µM, first compound 0.01 µM): 70.1%
viability, T/C [1]: 47%
viability, T/C [2]: 21.8%
viability, T/C [3]: 6.53%
viability, T/C [4]: 4.98%
viability, T/C (second compound 0.316 µM, first compound 0.00316 µM): 66.5%
viability, T/C (second compound 0.316 µM, first compound 0.01 µM): 51.5%
viability, T/C [5]: 39.8%
viability, T/C [6]: 15.7%
viability, T/C [7]: 5.88%
viability, T/C [8]: 3.95%
viability, T/C (second compound 1 µM, first compound 0.00316 µM): 52.1%
viability, T/C (second compound 1 µM, first compound 0.01 µM): 42.5%
viability, T/C [9]: 30.1%
viability, T/C [10]: 11.3%
viability, T/C [11]: 5.86%
viability, T/C [12]: 4.35%
viability, T/C (second compound 3.16 µM, first compound 0.00316 µM): 41.9%
viability, T/C (second compound 3.16 µM, first compound 0.01 µM): 35.7%
viability, T/C [13]: 19.8%
viability, T/C [14]: 11.6%
viability, T/C [15]: 4.56%
viability, T/C [16]: 4.47%
viability, T/C (second compound 10 µM, first compound 0.00316 µM): 38.6%
viability, T/C (second compound 10 µM, first compound 0.01 µM): 28.4%
viability, T/C [17]: 25.3%
viability, T/C [18]: 7.44%
viability, T/C [19]: 3.76%
viability, T/C [20]: 2.45%

Cc1nc(NC(=O)N2CCCC2C(N)=O)sc1-c1ccnc(C(C)(C)C(F)(F)F)c1 (stereo not given) + CC(C)NCC(C(=O)N1CCN(c2ncnc3c2C(C)CC3O)CC1)c1ccc(Cl)cc1
IC50 (second compound 0.1 µM): 929 nM
IC50 (second compound 0.316 µM): 366 nM
IC50 (second compound 1 µM): 64.8 nM
IC50 (second compound 3.16 µM): < 31.6 nM
IC50 (second compound 10 µM): < 31.6 nM
viability, T/C [1]: 77.9%
viability, T/C [2]: 76.6%
viability, T/C [3]: 64.3%
viability, T/C [4]: 50.7%
viability, T/C (second compound 0.1 µM, first compound 3.16 µM): 22.4%
viability, T/C (second compound 0.1 µM, first compound 10 µM): 2.44%
viability, T/C [5]: 59.6%
viability, T/C [6]: 60.8%
viability, T/C [7]: 52.1%
viability, T/C [8]: 36.5%
viability, T/C (second compound 0.316 µM, first compound 3.16 µM): 21.1%
viability, T/C (second compound 0.316 µM, first compound 10 µM): 2.34%
viability, T/C [9]: 54%
viability, T/C [10]: 46.7%
viability, T/C [11]: 39.7%
viability, T/C [12]: 32.1%
viability, T/C (second compound 1 µM, first compound 3.16 µM): 13.8%
viability, T/C (second compound 1 µM, first compound 10 µM): 1.78%
viability, T/C [13]: 45.5%
viability, T/C [14]: 39.7%
viability, T/C [15]: 35.8%
viability, T/C [16]: 24.1%
viability, T/C (second compound 3.16 µM, first compound 3.16 µM): 13.1%
viability, T/C (second compound 3.16 µM, first compound 10 µM): 2.03%
viability, T/C [17]: 39.5%
viability, T/C [18]: 33.4%
viability, T/C [19]: 35.9%
viability, T/C [20]: 19%
viability, T/C (second compound 10 µM, first compound 3.16 µM): 12.3%
viability, T/C (second compound 10 µM, first compound 10 µM): 1.55%

From PubChem BioAssay AID2060330 (Molecular Pharmacology Branch, DTP, NCI, 2025)
